Like-named read-outs stand apart in the source and are kept apart here. Residues, ends and D or L forms follow the SMILES beside them. No end group written: not given here.
Key:
HLA-DR1 (DRB*0101) = biological target: T1, HLA-DR1 (DRB*0101) (Homo sapiens, UniProt P01903+P01911, A100R/D57E/F55L/F60I/F76Y/I96L/L162R/M171V/P40L/Q125E/R42F/V115G/Y59C); assay: biochemical; assay type: binding
T1 construct: endogenous in cells; host or cells: LG2.1 B-lymphoblastic cell line, homozygous for HLA-DR

HLA-DR2 (DRB1*0201) = assay: HLA-DR-peptide binding assay; design: species or system human
HLA-DR3 (DRB*0301) = assay: HLA-DR-peptide binding assay; design: species or system human
HLA-DR4 (DRB*0401) = assay: HLA-DR-peptide binding assay; design: species or system human
HLA-DR 1, 2, 3, 4 and 7 = assay: HLA-DR-peptide binding assay, summary over the molecules tested; design: species or system human; settings: E7 peptides tested on HLA-DR 1, 2, 3, 4 and 7
Description: The analysis of peptide binding to purified DR molecules was performed using N-terminally fluorescence-labelled standard peptides.

HLA-DR7 (DRB1*0701) = HLA-DR7 (DRB1*0701) (Homo sapiens, UniProt P01903+P01911, A100R/A102G/A103Q/D57E/D86V/E43K/F76Y/K127E/L162R/M171V/P40G/Q125H/Q99D/R33Q/R42Y/R54Q/S133A/S66F/T210M/V115G/Y107V/Y59L/Y89S); settings: read-out: Binding DR7, IC50
[1] = system: HPV16 E2-specific Th-clones; assay: HPV16 E2-specific Th-clones: peptide recognition; assay type: cell-based, human; settings: clones from long-term E2 peptide stimulated healthy donor PBMC
Description: Long-term HPV16 E2-specific T-cell cultures and Th-clones were established according to previously described procedures (van der Burg et al. 1999). Briefly, PBMC from healthy HLA-typed donors were stimulated in vitro with the following HPV16 E2 peptides (E2271-300+E2286-315, E2301-330+E2316-345, E2331-365). 15×10^6 PBMC were seeded in 25 cm^2 culture flasks (Nalge Nunc, USA) in 6 ml IMDM supplemented with 10% autologous serum. Peptides were added at a concentration of 5 μg/ml. At day 7.15×10^6 PBMC were added, together with fresh medium and peptides. At day 14 and 21 viable T cells were harvested from the cultures, counted and restimulated with an equal amount of autologous irradiated PBMC and peptide (5 μg/ml). T-cell growth factor (Biotest, Dreieich, Germany) was added 2 days after restimulation at a final concentration of 10%. The T-cell cultures were tested for peptide recognition by proliferation assay at day 28. Peptide-specific T-cell cultures were cloned by limiting dilution and T-cell clones were subsequently tested for the recognition of E2-peptide and -protein-pulsed APC.
Specificity of the Th clones was analysed as described previously (Van der Burg et al. 1999). […] For measurement of proliferation, cultures were pulsed with […] [^3H] thymidine (5 μCi/mM, Amersham, UK) per well for 18 hours. Plates were harvested with a Micro cell Harvester (Skatron, Norway). Filters were packed in plastic covers containing 10 ml of scintillation fluid and subsequently counted on a 1205 Betaplate counter (Wallac, Turku, Finland). HLA-class II blocking experiments were performed using murine monoclonal antibodies: anti-DQ SPV. L3, anti-DR B8. 11.2, and anti-DP B7/21. Supernatants of the proliferation assays were harvested 24 hrs after incubation and analysed for the presence of IFN-γ by ELISA (van der Burg et al., 1999).

[2] = HPV16-E7 22-mer peptides, >70 indicates undetectable binding, read-out: Binding DR2, IC50
[3] = HPV16-E7 22-mer peptides, >70 indicates undetectable binding, read-out: Binding DR3, IC50
[4] = HPV16-E7 22-mer peptides, >70 indicates undetectable binding, read-out: Binding DR4, IC50

| Compound | IC50 (HLA-DR1 (DRB*0101); read-out: Binding DR1, IC50) [µM] | IC50 (HLA-DR2 (DRB1*0201); [2]) [µM] | IC50 (HLA-DR3 (DRB*0301); [3]) [µM] | IC50 (HLA-DR4 (DRB*0401); [4]) [µM] | IC50 (HLA-DR7 (DRB1*0701)) [µM] | recognition by E2-specific CD4+ Th clones and HLA restriction [1] | also measured |
| --- | --- | --- | --- | --- | --- | --- | --- |
| CSCC[C@H](NC(=O)[C@H](Cc1ccc(O)cc1)NC(=O)[C@H](CCC(=O)O)NC(=O)[C@H](Cc1c[nH]cn1)NC(=O)[C@H](CC(C)C)NC(=O)[C@@H](NC(=O)[C@@H]1CCCN1C(=O)[C@@H](NC(=O)[C@H](CC(=O)O)NC(=O)CNC(=O)[C@H](Cc1c[nH]cn1)NC(=O)[C@@H](N)CCSC)[C@@H](C)O)[C@@H](C)O)C(=O)N[C@@H](CC(C)C)C(=O)N[C@@H](CC(=O)O)C(=O)N[C@@H](CC(C)C)C(=O)N[C@@H](CCC(N)=O)C(=O)N1CCC[C@H]1C(=O)N[C@@H](CCC(=O)O)C(=O)N[C@H](C(=O)N[C@H](C(=O)N[C@@H](CC(=O)O)C(=O)N[C@@H](CC(C)C)C(=O)O)[C@@H](C)O)[C@@H](C)O [E7 1-22] | > 70 | 10 | 0.8 | 30 | 7 |  | HLA-DR molecules bound (HLA-DR 1, 2, 3, 4 and 7): bound to HLA DR2, 3, 4 and 7 |
| CSCC[C@H](NC(=O)[C@@H](N)Cc1ccc(O)cc1)C(=O)N[C@@H](CC(C)C)C(=O)N[C@@H](CC(=O)O)C(=O)N[C@@H](CC(C)C)C(=O)N[C@@H](CCC(N)=O)C(=O)N1CCC[C@H]1C(=O)N[C@@H](CCC(=O)O)C(=O)N[C@H](C(=O)N[C@H](C(=O)N[C@@H](CC(=O)O)C(=O)N[C@@H](CC(C)C)C(=O)N[C@@H](Cc1ccc(O)cc1)C(=O)N[C@@H](CS)C(=O)N[C@@H](Cc1ccc(O)cc1)C(=O)N[C@@H](CCC(=O)O)C(=O)N[C@@H](CCC(N)=O)C(=O)N[C@@H](CC(C)C)C(=O)N[C@@H](CC(N)=O)C(=O)N[C@@H](CC(=O)O)C(=O)N[C@@H](CO)C(=O)N[C@@H](CO)C(=O)O)[C@@H](C)O)[C@@H](C)O [E7 11-32] | > 70 | > 70 | 50 | > 70 | > 70 |  |  |
| CC[C@H](C)[C@H](NC(=O)[C@H](CC(N)=O)NC(=O)[C@H](Cc1ccc(O)cc1)NC(=O)[C@@H](N)Cc1c[nH]cn1)C(=O)N[C@H](C(=O)N[C@H](C(=O)N[C@@H](Cc1ccccc1)C(=O)N[C@@H](CS)C(=O)N[C@@H](CS)C(=O)N[C@@H](CCCCN)C(=O)N[C@@H](CS)C(=O)N[C@@H](CC(=O)O)C(=O)N[C@@H](CO)C(=O)N[C@H](C(=O)N[C@@H](CC(C)C)C(=O)N[C@@H](CCCNC(=N)N)C(=O)N[C@@H](CC(C)C)C(=O)N[C@@H](CS)C(=O)N[C@H](C(=O)N[C@@H](CCC(N)=O)C(=O)N[C@@H](CO)C(=O)N[C@H](C(=O)O)[C@@H](C)O)C(C)C)[C@@H](C)O)[C@@H](C)O)C(C)C [E7 51-72] (H-HYNIVTFCCKCDSTLRLCVQST-OH; N-terminus and C-terminus assumed) |  | > 70 | 50 | > 70 |  |  | HLA-DR molecules bound (HLA-DR 1, 2, 3, 4 and 7): bound to DR1, 3 and 7 |
| CC[C@H](C)[C@H](NC(=O)[C@H](CC(=O)O)NC(=O)[C@@H](NC(=O)[C@H](Cc1c[nH]cn1)NC(=O)[C@@H](NC(=O)[C@H](CO)NC(=O)[C@H](CCC(N)=O)NC(=O)[C@@H](NC(=O)[C@H](CS)NC(=O)[C@H](CC(C)C)NC(=O)[C@H](CCCNC(=N)N)NC(=O)[C@H](CC(C)C)NC(=O)[C@@H](NC(=O)[C@H](CO)NC(=O)[C@H](CC(=O)O)NC(=O)[C@@H](N)CS)[C@@H](C)O)C(C)C)[C@@H](C)O)C(C)C)C(=O)N[C@@H](CCCNC(=N)N)C(=O)N[C@H](C(=O)N[C@@H](CC(C)C)C(=O)N[C@@H](CCC(=O)O)C(=O)N[C@@H](CC(=O)O)C(=O)N[C@@H](CC(C)C)C(=O)O)[C@@H](C)O [E7 61-82] (H-CDSTLRLCVQSTHVDIRTLEDL-OH; N-terminus and C-terminus assumed) | > 70 | 15 | 65 | > 70 | > 70 |  |  |
| CC[C@H](C)[C@H](NC(=O)CNC(=O)[C@H](CC(C)C)NC(=O)[C@@H](NC(=O)CNC(=O)[C@H](CCSC)NC(=O)[C@H](CC(C)C)NC(=O)[C@H](CC(C)C)NC(=O)[C@H](CC(=O)O)NC(=O)[C@H](CCC(=O)O)NC(=O)[C@H](CC(C)C)NC(=O)[C@@H](NC(=O)[C@@H](N)CCCNC(=N)N)[C@@H](C)O)[C@@H](C)O)C(=O)N[C@H](C(=O)N[C@@H](CS)C(=O)N1CCC[C@H]1C(=O)N[C@H](C(=O)N[C@@H](CS)C(=O)N[C@@H](CO)C(=O)N[C@@H](CCC(N)=O)C(=O)N[C@@H](CCCCN)C(=O)N1CCC[C@H]1C(=O)O)[C@@H](C)CC)C(C)C [E7 77-98] (H-RTLEDLLMGTLGIVCPICSQKP-OH; N-terminus and C-terminus assumed) |  | 22 | > 70 | > 70 |  |  | IC50 (HLA-DR1 (DRB*0101); read-out: Binding DR1, IC50, HPV16-E7 22-mer peptides, >70 indicates undetectable binding): 46 µM; HLA-DR molecules bound (HLA-DR 1, 2, 3, 4 and 7): bound to DR1, 2 and DR7; IC50 (HLA-DR7 (DRB1*0701); HPV16-E7 22-mer peptides, >70 indicates undetectable binding): 0.9 µM |
| DLYCYEQLNDSSEEEDEIDGPA [E7 21-42] | > 70 | 12 | > 70 | > 70 | > 70 |  |  |
| E2 51-70: Th epitope peptide, amino acids 51-70 of HPV16 E2 (FKHINHQVVPTLAVSKNKAL) |  |  |  |  |  | in a HLA-DR4 restricted manner |  |
| E2 61-75: Th epitope peptide, amino acids 61-75 of HPV16 E2 (TLAVSKNKALQAIEL; UniProt P03120 61-75, looked up, fragment) |  |  |  |  |  | reacted against |  |
| E2 311-325: Th epitope peptide, amino acids 311-325 of HPV16 E2 (LYTAVSSTWHWTGHN) |  |  |  |  |  | in the context of HLA-DQ6 (1) |  |
| E2 351-365: Th epitope peptide, amino acids 351-365 of HPV16 E2 (KIPKTITVSTGFMSI) |  |  |  |  |  | in a DR1-restricted manner |  |
| LRYRFKKHCTLYTAVSSTWHWTGHNVKHKS [E2 301-330] |  |  |  |  |  | both Th-clones recognized | IC50 (HLA-DR1 (DRB*0101); HPV16-E2 peptides, >70 represents undetectable binding, read-out: Binding affinity DR1, IC50): 6 µM; IC50 (HLA-DR2 (DRB1*0201); HPV16-E2 peptides, >70 represents undetectable binding, read-out: Binding affinity DR2, IC50): 8 µM; IC50 (HLA-DR3 (DRB*0301); HPV16-E2 peptides, >70 represents undetectable binding, read-out: Binding affinity DR3, IC50): > 70 µM; IC50 (HLA-DR4 (DRB*0401); HPV16-E2 peptides, >70 represents undetectable binding, read-out: Binding affinity DR4, IC50): 10 µM |
